In the NIST ThermoML archive (doi:10.1021/je400178k):

Assay: molar heat capacity at constant pressure; xn = mol fraction of the nth substance listed
Conditions: 101 kPa, Liquid, Small sample (50 mg) DSC

NCCCN1CCOCC1 [N-(3-aminopropyl)morpholine] + O
molar heat capacity at constant pressure [J/K/mol]
Conditions	x1 = 0.0999	x1 = 0.2	x1 = 0.2921	x1 = 0.3916	x1 = 0.4896	x1 = 0.6011	x1 = 0.6947	x1 = 0.7952	x1 = 0.8939	x1 = 1
298.15 K	108.4	136.2	160.1	183.1	203.5	224.3	242.5	261.6	278.9	296.2
303.15 K	109.3	137.2	161.5	184.9	205.1	226.3	244.5	263.6	281	298.2
308.15 K	110.3	138.2	162.6	186.4	206.8	227.8	246.1	265.1	282.5	299.6
313.15 K	111.3	139.5	164	188.1	208.5	229.5	247.7	266.7	284	301.2
318.15 K	112.3	140.9	165.6	189.9	210.3	231.2	249.4	268.4	285.8	302.8
323.15 K	113.1	142.3	167.2	191.3	211.7	232.9	251.1	270.1	287.5	304.5
328.15 K	114	143.7	168.6	192.9	213.2	234.4	252.6	271.6	289.1	306.1
333.15 K	114.9	145.3	170.3	194.5	214.8	236	254.3	273.4	290.9	307.9
338.15 K	115.9	146.8	171.9	196.2	216.5	237.7	256	275	292.5	309.6
343.15 K	116.8	148.2	173.8	197.6	218.1	239.5	257.6	276.5	294.2	311.3
348.15 K	117.8	149.7	175.5	199.3	219.7	240.9	259.1	277.9	295.6	312.7
353.15 K	118.9	151.1	177.2	201.6	221.1	242.1	260.2	278.7	296.3	313.4

OCCN1CCOCC1 [4-morpholineethanol] + O
molar heat capacity at constant pressure [J/K/mol]
Conditions	x1 = 0.0998	x1 = 0.1985	x1 = 0.2979	x1 = 0.3969	x1 = 0.4952	x1 = 0.6017	x1 = 0.7031	x1 = 0.7657	x1 = 0.8977	x1 = 1
298.15 K	101	120.8	140.3	159.5	177.4	195.6	212.8	223.5	246.5	263.9
303.15 K	102.4	123.6	142.6	162.4	180	198	214.7	226	248.4	265.3
308.15 K	103.8	125.7	144.6	165	182.6	200.3	217.1	228.3	250.8	267.1
313.15 K	105.4	127.9	146.7	167.8	185.5	203	219.7	230.8	253.1	269.2
318.15 K	107.2	130.4	148.9	171	188.6	205.9	222.5	233.3	255	270.8
323.15 K	109	133	152.3	174.4	191.8	208.7	225.5	235.8	257	272.6
328.15 K	111.4	136	156.3	178.4	195.5	211.8	228.7	238.6	259.1	274.3
333.15 K	114.2	139.3	160.3	183	199.7	215.6	232.5	242.5	261.7	276.2
338.15 K	117.4	143.2	165	188.6	204.6	220.1	237	246.3	264.7	278.7
343.15 K	121.1	147.7	170.6	194.6	209.9	225.4	241.6	250.3	267.9	281
348.15 K	125.9	152.9	178.7	201.6	215.9	231	246.6	254.8	271.2	283.2
353.15 K	131.9	159.5	187	209.9	222.5	236.4	252.2	259.4	274.8	284.9
